The values that follow come from US6548284B1, “Membrane-bound metalloprotease and soluble secreted form thereof” (JCR Pharmaceuticals Co., Ltd., priority 2000, dated 2003).

The target of data set [1] is T1, soluble form of SEP (Mus musculus, UniProt Q9JLI3).
T1 construct: partially purified the soluble form of SEP from the conditioned medium of CHO/SEP cells; made in house; host or cells: CHO-K1 cells, transient transfection; conditioned medium partially purified on a wheat germ lectin column
T1 sequence (Q9JLI3 63-765 limits assumed): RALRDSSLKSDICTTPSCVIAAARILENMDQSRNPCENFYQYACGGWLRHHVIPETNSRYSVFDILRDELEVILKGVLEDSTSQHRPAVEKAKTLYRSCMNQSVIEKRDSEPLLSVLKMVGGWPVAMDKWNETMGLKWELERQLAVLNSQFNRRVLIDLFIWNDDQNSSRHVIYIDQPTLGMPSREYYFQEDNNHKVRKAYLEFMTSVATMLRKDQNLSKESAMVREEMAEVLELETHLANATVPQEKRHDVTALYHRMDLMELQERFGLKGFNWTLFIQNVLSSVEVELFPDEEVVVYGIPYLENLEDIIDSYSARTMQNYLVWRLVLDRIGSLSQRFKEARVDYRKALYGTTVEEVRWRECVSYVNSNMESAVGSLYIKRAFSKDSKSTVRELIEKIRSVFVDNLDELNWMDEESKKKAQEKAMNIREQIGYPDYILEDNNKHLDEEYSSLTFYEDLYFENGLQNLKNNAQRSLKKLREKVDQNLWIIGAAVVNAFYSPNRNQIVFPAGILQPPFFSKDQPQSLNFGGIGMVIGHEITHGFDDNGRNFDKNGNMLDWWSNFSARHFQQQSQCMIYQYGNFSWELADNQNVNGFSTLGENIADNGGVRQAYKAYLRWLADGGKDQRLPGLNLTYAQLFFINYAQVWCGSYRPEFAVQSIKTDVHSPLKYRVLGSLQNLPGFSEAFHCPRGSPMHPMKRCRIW
Put plainly: Inhibition of ET-1 degrading activity of recombinant soluble SEP. To be noted: for SEP activity: Inhibitor 100 μM, SEP partially purified from conditioned medium of CHO/SEP cells, no inhibitor = 100, unit assumed; for inhibition of SEP activity (in words) / IC50: soluble form of SEP; for inhibition of SEP activity (in words): in vitro; for IC50: ET-1 degrading activity, dose-dependent, read-out: apparent IC50, inhibition of SEP activity. Format: biochemical. As to the method:
(§1) Double transfection of prepro-ET-1and ECE-1a, SEP, or SEP^Δ was performed using LipofectAMINE (Life Technologies, Inc.). Twelve hours after transfection, cells were refed with fresh medium. […] For in vitro enzymological charactenization, an SEP expression construct was transiently transfected into CHO-K1 cells. The medium was conditioned for 48 h in CHO-SFM II (Life Technologies, Inc.) and was subjected to a wheat germ lectin column (1×1 ml HiTrap wheat germ lectin; Amersham Pharmacia Biotech) equilibrated with 20 mM Tris-Cl (pH 7.4) and 0.5M NaCl. The column was washed and eluted with the same buffer containing 0.5M N-acetylglucosamine. The active fraction was subsequently subjected to a Centriprep concentrator (Amicon).
(§2) Reaction mixtures for enzyme assay (100 μl) contained 0.1 M MES-NaOH(pH 7.4), 0.5 μM peptide, and an enzyme fraction. For some experiments, the reactions were preincubated at 37° C. with various protease inhibitors for 15 min prior to the addition of the peptide. The reactions were incubated at 37° C. for 1-12 h in siliconized 0.5-ml microcentrifuge tubes. The enzyme reaction was terminated by adding 1 μl of 10 mM EDTA. The mixture was then injected into a C18 reverse-phase high pressure liquid chromatography (HPLC) column (μRPC C2/C18, ST4.6/100; Amersham Pharmacia Biotech) that was equilibrated with 10% (v/v) acetonitrile and 0.1% (v/v) trifluoroacetic acid. The column was eluted at a flow rate of 1 ml/min with a 10-80% linear gradient of acetonitrile and 0.1% trifluoroacetic acid over 43 min, followed by a 100% acetonitrile for an additional 3 min. Peptides were detected by absorbance at 220 nm.
The present inventors next assessed the enzymological properties of cloned SEP by using its ET-1 degrading activity.

Data set [2] deals with T1, soluble form of SEP. Put plainly: SEP-catalyzed hydrolysis of bioactive peptides monitored by HPLC. Format: biochemical. To be noted: by recombinant soluble SEP, substrate peak area vs control. As to the method: as §1, with “CHO-K1 cells were cultured [Emoto, N. et al., J. Biol. Chem., 274:1509-1518(1999)]. Double” for “Double”
as §2
Previously, the present inventors have shown that ECE-1 cleaves the Trp^21-Val^22 bond of big ET-1 (1-38) to produce mature ET-1(1-21) and the C-terminal half of big ET-1(22-38) without further cleaving other parts of big ET-1 or ET-1 [Xu, D. et al., Cell, 78:473-485(1994)]. To examine the cleavage site(s) of big ET-1 and mature ET-1 by recombinant SEP in an […] assay, the present inventors partially purified the soluble form of SEP from the conditioned medium of CHO/SEP cells. The present inventors then incubated relatively large amounts of big ET-1 (10 μM) and ET-1 (1.5 μM) with partially purified SEP for a prolonged period of time (12 h) while directly monitoring the cleavage by reverse-phase HPLC. Product peaks were collected, and the peptides were identified by mass spectrometry. Big ET-1 (1-38) was hydrolyzed to a significant degree (42%) by the soluble form of SEP, and HPLC resolved at least four distinct product peaks (FIG. 7B). Two peptides products (FIG. 7C, peaks 1 and 4) were co-eluted with the standards of big ET-1 (22-38) and mature ET-1 (1-21), respectively. Analysis using mass spectrometry confirmed that they were big ET-1 (22-38) and mature ET-1(1-2 1), with an m/z value for (M+H)^+ of 1810 and 2493, respectively. These finding indicate that the soluble form of SEP can produce ET-1 by cleaving at the specific Trp^21-Val^22 site of big ET-1. On the other hand, it appears that ET-1 is further digested by the soluble form of SEP. […] These two major peaks (FIG. 7D, peaks 1 and 2) from mature ET-1 were co-eluted with the peaks (FIG. […], peaks 2 and 3, respectively) produced from big ET-1 hydrolysis. Using molecular masses, one peptide product (FIG. 7; C, peak 3, and D, peak 2) was identified as ET-1 (1-16). Another peptide product (FIG. 7; C, peak 2, and D, peak 1) appeared to be the two-chain ET-1 (1-16), which is held together by two disulfide bonds between Cys^1 and Cys^15 and between Cys^3 and Cys^11, presumably produced by cleavage at one site between Ser^4 and Glu^10 of ET-1 (1-16).
Finally, the present inventors examined the SEP-catalyzed hydrolysis of other bioactive peptides that have been characterized as substrates of ECE-1 and/or NEP. […]

Data set [3] deals with ECE-1 and ECE-2. To be noted: ECE-1 vs ECE-2; cited from earlier work.
For data set [4], the target named is T2, synthetic human big ET-1 (1-38), P05305.
T2 chain: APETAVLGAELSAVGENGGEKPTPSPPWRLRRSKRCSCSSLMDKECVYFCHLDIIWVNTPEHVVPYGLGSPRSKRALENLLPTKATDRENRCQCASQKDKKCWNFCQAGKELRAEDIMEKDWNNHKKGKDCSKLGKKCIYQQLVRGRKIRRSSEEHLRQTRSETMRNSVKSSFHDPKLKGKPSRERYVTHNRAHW

For data set [5], the target named is atrial natriuretic peptide.
For data set [6], the target named is T3, synthetic human ET-1 (1-21), P05305.
T3 chain: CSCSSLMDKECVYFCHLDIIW

Data set [7] has as its target bradykinin, P01042.
In data set [8] the target is angiotensin I, P01019.
Data set [9] deals with T4, substance P, P20366.
T4 chain: RPKPQQFFGLM

Entries after “also recorded” stand apart in the source; their conditions may differ. Ends that are not written are not given here.

Chain of angiotensin I, P01019 (P01019 whole entry, looked up): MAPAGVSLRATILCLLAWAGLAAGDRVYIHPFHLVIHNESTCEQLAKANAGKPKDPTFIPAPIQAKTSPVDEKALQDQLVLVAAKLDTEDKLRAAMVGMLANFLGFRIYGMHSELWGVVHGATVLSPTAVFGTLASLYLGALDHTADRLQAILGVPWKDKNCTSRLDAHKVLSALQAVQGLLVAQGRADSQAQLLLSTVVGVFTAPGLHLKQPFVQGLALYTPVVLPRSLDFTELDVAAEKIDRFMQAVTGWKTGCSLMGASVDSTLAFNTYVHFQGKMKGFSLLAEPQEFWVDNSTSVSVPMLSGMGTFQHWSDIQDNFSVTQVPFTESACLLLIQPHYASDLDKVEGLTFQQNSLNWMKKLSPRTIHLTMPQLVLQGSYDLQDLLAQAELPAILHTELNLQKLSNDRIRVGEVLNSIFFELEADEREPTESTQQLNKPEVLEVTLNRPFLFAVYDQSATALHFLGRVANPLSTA
Chain of bradykinin, P01042 (P01042 whole entry, looked up): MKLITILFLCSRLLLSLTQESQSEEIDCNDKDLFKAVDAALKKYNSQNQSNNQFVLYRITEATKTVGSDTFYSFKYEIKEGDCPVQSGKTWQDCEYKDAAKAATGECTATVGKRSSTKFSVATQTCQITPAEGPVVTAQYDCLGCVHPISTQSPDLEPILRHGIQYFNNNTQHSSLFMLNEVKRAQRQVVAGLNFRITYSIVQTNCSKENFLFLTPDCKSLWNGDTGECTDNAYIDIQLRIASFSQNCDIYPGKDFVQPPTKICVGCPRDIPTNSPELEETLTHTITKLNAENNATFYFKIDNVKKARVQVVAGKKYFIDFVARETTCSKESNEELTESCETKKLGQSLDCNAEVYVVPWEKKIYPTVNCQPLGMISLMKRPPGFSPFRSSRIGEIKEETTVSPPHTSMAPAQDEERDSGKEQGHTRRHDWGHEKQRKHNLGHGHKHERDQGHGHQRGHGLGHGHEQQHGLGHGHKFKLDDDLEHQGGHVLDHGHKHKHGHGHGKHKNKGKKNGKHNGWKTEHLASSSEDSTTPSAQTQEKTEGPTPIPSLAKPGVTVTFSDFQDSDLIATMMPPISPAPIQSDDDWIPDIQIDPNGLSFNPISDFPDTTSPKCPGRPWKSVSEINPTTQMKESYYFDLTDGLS

For the molecule `c1cnc2c(c1)ccc1cccnc12` [1,10-Phenanthroline, 1,10-phenanthroline], in data set [1], the SEP activity came to 1% and the “inhibition of SEP activity (in words)” value is on record as “inhibited”.
Take `CC[C@H](C)[C@@H]1NC(=O)[C@H](CCCNC(=N)N)NC(=O)[C@H](CC(=O)O)NC(=O)[C@H](CCSC)NC(=O)[C@H](CCCNC(=N)N)NC(=O)CNC(=O)CNC(=O)[C@H](Cc2ccccc2)NC(=O)[C@@H](NC(=O)[C@H](CO)NC(=O)[C@H](CO)NC(=O)[C@H](CCCNC(=N)N)NC(=O)[C@H](CCCNC(=N)N)NC(=O)[C@H](CC(C)C)NC(=O)[C@@H](N)CO)CSSC[C@@H](C(=O)N[C@@H](CC(N)=O)C(=O)N[C@@H](CO)C(=O)N[C@@H](Cc2ccccc2)C(=O)N[C@@H](CCCNC(=N)N)C(=O)N[C@@H](Cc2ccc(O)cc2)C(=O)O)NC(=O)CNC(=O)[C@H](CC(C)C)NC(=O)CNC(=O)[C@H](CO)NC(=O)[C@H](CCC(N)=O)NC(=O)[C@H](C)NC(=O)CNC1=O` [Atrial Natriuretic peptide]: in [2], the “Hydrolysis (%)” value was more than 95%.
In the case of `C[C@H](CS)C(=O)N1CCC[C@H]1C(=O)O` [Captopril, captopril], in [1], the SEP activity is 103% and the “inhibition of SEP activity (in words)” value is reported as “not inhibited”.
For the molecule `COc1c2c(c(O)c3c1C(O)Cc1cc(CC(C)O)c(C(=O)O)c(O)c1-3)C(=O)c1cccc(O)c1C2=O` (stereo not shown) [FR901533], in data set [1], the SEP activity came to 38% and the “inhibition of SEP activity (in words)” value is given as “not completely; also recorded: only partially inhibited”.
In the case of `CC(C)C[C@H](NP(=O)(O)O[C@@H]1O[C@@H](C)[C@H](O)[C@@H](O)[C@H]1O)C(=O)N[C@@H](Cc1c[nH]c2ccccc12)C(=O)O` [Phosphoramidon], in [1], the SEP activity was 8%, the IC50 was approximately 0.006 µM and the “inhibition of SEP activity (in words)” value is listed as “inhibited”. Moreover, in [3], the “sensitivity of ECE-1 to phosphoramidon lower than that of ECE-2” value is given as 250 fold.
On to `O=C(O)CNC(=O)C(CS)Cc1ccccc1` (stereo not shown) [Thiorphan], for which, in data set [1], the SEP activity came out at 2%, the IC50 was approximately 2 µM and the “inhibition of SEP activity (in words)” value is given as “efficiently inhibited”.
In the case of “Angiotensin I: bioactive peptide substrate from American Peptides (DRVYIHPFHL)”, the “Hydrolysis (%)” value in [2] was more than 95%.
Consider “Big endothelin-1: synthetic human big ET-1, inactive ET precursor (CSCSSLMDKECVYFCHLDIIWVNTPEHVVPYGLGSPRS; ends and bridges not checked; cysteine pairing not given here; UniProt P05305 53-90, looked up)”, for which the “Hydrolysis (%)” value in [2] was found to be 42%.
In the case of “Endothelin-1: human ET-1, mature endothelin peptide”, the “Hydrolysis (%)” value in data set [2] stood at 92%.
Turning to RPPGFSPFR [Bradykinin], the “Hydrolysis (%)” value in [2] was more than 95%.
Take “Substance P: bioactive peptide substrate from American Peptides”: the “Hydrolysis (%)” value in [2] is more than 95%.

B1: soluble form of SEP (soluble secreted endopeptidase), partially purified from the conditioned medium of CHO/SEP cells (protein)
chain: RALRDSSLKSDICTTPSCVIAAARILENMDQSRNPCENFYQYACGGWLRHHVIPETNSRYSVFDILRDELEVILKGVLEDSTSQHRPAVEKAKTLYRSCMNQSVIEKRDSEPLLSVLKMVGGWPVALDKWNETMGLKWELERQLAVLNSQFNRRVLIDLFIWNDDQNSSRHVIYIDQPTLGMPSREYYFQEDNNHKVRKAYPEFMTSVATMLRKDQNLSKESAMVREEMAEVLELETHLANATVPQEKRHDVTALYHRMDLMELQERFGLKGFNWTLFIQNVLSSVEVELFPDEEVVVYGIPYLENLEDIIDSYSARTMQNYLVWRLVLDRIGSLSQRFKEARVDYRKALYGTTVEEVRWRECVSYVNSNMESAVGSLYIKRAFSKDSKSTVRELIEKIRSVFVDNLDELNWMDEESKKKAQEKAMNIREQIGYPDYILEDNNKHLDEEYSSLTFYEDLYFENGLQNLKNNAQRSLKKLREKVDQNLWIIGAAVVNAFYSPNRNQIVFPAGILQPPFFSKDQPQSLNFGGIGMVIGHEITHGFDDNGRNFDKNGNMLDWWSNFSARHFQQQSQCMIYQYGNFSWELADNQNVNGFSSLGENIADNGGVRQAYKAYLRWLADGGKDQRLPGLNLTYAQLFFINYAQVWCGSYRPEFAVQSIKTDVHSPLKYRVLGSLQNLPGFSEAFHCPRGSPMHPMKRCRIW
Turning to B1, the Hydrolysis (%) in data set [4] is 42%; in [5] it was more than 95%; in data set [6], 92%; in data set [7], more than 95%; in data set [8] it was more than 95%; in data set [9] it was more than 95%.

For orientation: IC50 means the concentration that inhibits the measured activity by half.
